# From patent EP0455830B1, “MEDICINE CONTAINING THIAZINE DIOXIDE DERIVATIVE” (NIPPON HYPOX LABORATORIES INCORPORATED, priority 1989, dated 1991)
# Several values for one entry are separate records, joined by “and”; a condition that tells them apart may be missing. Equal entries are not always repeated. Where two headings read alike, the source gives them in different places.
# What was measured:
# [1] = system: nephritis caused by cisplatin; assay: Effect on nephritis caused by cisplatin -1 (Example 2); type: in vivo, female Fischer rats; settings: with cisplatin 2 mg/kg hypodermically for 5 days, 24 h after final administration
# Protocol: Effect on nephritis caused by cisplatin -1
# Five female Fischer rats (5 weeks of age) per group were administered hypodermically with 2 mg/kg of cisplatin for 5 days, and at the same time, HX-1920 was administered orally in a dose of 50 mg or 150 mg/kg, or administered intraperitoneally in a dose of 10 or 30 mg/kg. Twenty-four hours after the final administration, the rats were sacrificed, and their blood urea nitrogen (BUN) and creatinine were measured.
# [2] = system: vomiting caused by cisplatin; assay: Effect on inhibition of vomiting caused by cisplatin -1 (Example 6), degree of vomiting per dog; type: in vivo; parameters: key: III: Extreme; II: Moderate; I: Slight; 0: No vomiting; settings: 20 mg/kg p.o. (capsule) 30 min before i.v. cisplatin; individual dogs
# Protocol: Effect on inhibition of vomiting caused by cisplatin -1
# Five dogs (7 - 12.5 kg) per group were admininistered intravenously with 0.4 mg/kg of cisplatin per day for the initial 3 days and with 0.8 mg/kg of cisplatin per day for the subsequent 1 day. HX-1920 in a dose of 20 mg/kg was encapsulated and administered 30 minutes before the intravenous administration of cisplatin. Separately, Nauzelin (trade name, manufactured by Kyowa Hakko Kogyo Co., Ltd.), which was a domperidone type antiemetic, was administered to another group of five dogs in a dose of 2 mg/kg for 7 days. […] The vomiting was cured after 24 hours. However, the same symptom was repeatedly manifested when cisplatin was administered. […] Thus, the effect of HX-1920 on the alleviation of the vomit-inducing activity of the carcinostatic cisplatin was evident.
# [3] = system: stomach contraction caused by cisplatin; assay: Effect on inhibition of stomach contraction caused by cisplatin (Example 8); type: in vivo, female Fischer rats; settings: with cisplatin 2 mg/kg subcutaneously once a day for 4 days
# Protocol: Effect on inhibition of stomach contraction caused by cisplatin
# Cisplatin in a dose of 2 mg/kg was administered subcutaneously into female Fischer rats (5 weeks of age) once a day for 4 days, and at the same time, HX-1920 was administered intraperitoneally or orally.
# […] For the cisplatin non-administered group and the cisplatin administered vehicle control group, 1 ml/day of a 1 % gum arabic solution was administered per rat.
# [4] = system: nephritis caused by cisplatin; assay: Effect on nephritis caused by cisplatin - 2 (Example 3); type: in vivo, female Fischer rats; settings: with cisplatin 1 mg/kg hypodermically for 8 days, 24 h after final administration
# Protocol: Effect on nephritis caused by cisplatin - 2
# Six female Fischer rats (8 weeks of age) per group were administered hypodermically with 1 mg/kg of cisplatin for 8 days, and at the same time, HX-1920 was administered orally in a dose of 10 mg or 100 mg/kg. In both the administrations, the blood urea nitrogen (BUN) and creatinine measured 24 hours after the final administration tended to show lower values. […]
# [5] = system: nephritis caused by cisplatin; assay: Effect on nephritis caused by cisplatin - 4 (Example 5); type: in vivo, female F344 rats; settings: for BUN / Creatinine: cisplatin 1 mg/kg hypodermically for 8 days, 24 h after final cisplatin; for inhibition at 100 mg/kg: Rattus norvegicus, po, 100 mg/kg p.o., inhibition of the cisplatin-induced increase
# Protocol: Effect on nephritis caused by cisplatin - 4
# Six to seven female F344 rats per group weighing about 150 g, per group, were administered hypodermically in the dorsal portion with 1 mg/kg of cisplatin dissolved in a physiological saline solution once a day over 8 days. Twenty-four hours after the final administration of the cisplatin, the rats were anesthtized with ether, and the blood was collected from each rat, centrifuged and measured for blood urea nitrogen (BUN) and creatinine with an autoanalyzer Olympus AU-550.
# HX-1920 which was a substance to be tested was dissolved in a 2.5 % NaHCO₃, and the resultant solution was administered orally in a dose of 10 or 100 mg/kg over 8 days immediately before the administration of the cisplatin.
# The increases in BUN and creatinine by the administration of cisplatin are considered to be characteristics in acute renal failure. […]
# [6] = system: vomiting induced by the cisplatin; assay: Effect on inhibition of vomiting caused by cisplatin -2 (Example 7), manifestation ratio; type: in vivo, mongrel dogs
# Protocol: Effect on inhibition of vomiting caused by cisplatin -2
# Female and male mongrel dogs weiging about 10 kg were administered intravenously with 0.4 mg/kg/day of cisplatin dissolved in a physiological saline solution for the initial 3 days and with 0.8 mg/kg/day of cisplatin for the subsequent 4 days to examine the effects of substances to be tested on the basis of a manifestation ratio, as an index, of vomiting induced by the cisplatin.
# HX-1920, which was a substance to be tested, was dissolved in a 10 % Nikkol solution (Nikkol: trade name, dissolving aid manufactured by Nikko Chemical Co., Ltd.) containing 1 % NaHCO₃, and put into gelatin soft capsules, and the capsules were administered orally 30 minutes before the administration of cisplatin.
# In addition, as a known domperidone type antiemetic, a 1 % Nauzelin powder was put into gelatin soft capsules, and administered orally 30 minutes before the administration of cisplatin.
# [7] = system: nephritis caused by cisplatin; assay: Effect on nephritis caused by cisplatin - 3 (Example 4), BUN and survival; type: in vivo, male ICR rats; settings: with cisplatin 3 mg/kg subcutaneously for 4 days
# Protocol: Effect on nephritis caused by cisplatin - 3
# Ten male ICR rats (8 weeks of age) per group were administered subcutaneously with 3 mg/kg of cisplatin for 4 days, and at the same, HX-1920 was orally administered in a dose of 100 mg/kg. Sixteen hours after the final administration, 5 rats of each group were measured for blood urea nitrogen (BUN), and the survival ratios of the remaining 5 rats of each group for the subsequent 5 days were examined. […] Thus, the effect of the administration of HX-1920 on the alleviation of renal dysfunctions was observed. […]
# [8] = 10 mg/kg/day p.o. in 2.5 % NaHCO3 over 8 days
# [9] = 100 mg/kg/day p.o. in 2.5 % NaHCO3 over 8 days
# [10] = 20 mg/kg orally in capsules 30 min before i.v. cisplatin (0.4 mg/kg/day 3 days, then 0.8 mg/kg/day 4 days)
structure (smiles),measurement,setting,value
"CN1C(C(=O)Nc2ccccc2-c2nnn[nH]2)=C(O)c2ccccc2S1(=O)=O [HX-1920, 4-hydroxy-2-methyl-N-(2-(1H-tetrazol-5-yl)phenyl)2H-1,2-benzothiazine-3-carboxamide-1,1-dioxide]",BUN,[1]; 10 mg/kg/day i.p.,102.8 ± 29.5 mg/dL
same,Creatinine,[1]; 10 mg/kg/day i.p.,0.70 ± 0.04 mg/dL
same,BUN,[1]; 30 mg/kg/day i.p.,69.6 ± 22.2 mg/dL
same,Creatinine,[1]; 30 mg/kg/day i.p.,0.65 ± 0.04 mg/dL
same,BUN,[1]; 50 mg/kg/day p.o.,138.1 ± 47.6 mg/dL
same,Creatinine,[1]; 50 mg/kg/day p.o.,0.83 ± 0.31 mg/dL
same,BUN,[1]; 150 mg/kg/day p.o.,91.1 ± 58.6 mg/dL
same,Creatinine,[1]; 150 mg/kg/day p.o.,0.65 ± 0.11 mg/dL
same,Degree of vomiting 5th day,[2],0 (4×) and I
same,Degree of vomiting 6th day,[2],I (2×) and 0 (3×)
same,Degree of vomiting 7th day,[2],I (3×) and 0 (2×)
same,Diameter of center of stomach,[3]; 10 mg/kg i.p.,0.97±0.07 mm
same,Diameter of center of stomach,[3]; 30 mg/kg i.p.,1.18±0.07 mm
same,Diameter of center of stomach,[3]; 150 mg/kg p.o.,1.14±0.07 mm
same,BUN,[4]; 10 mg/kg/day p.o.,51.1 ± 16.5 mg/dL
same,Creatinine,[4]; 10 mg/kg/day p.o.,1.15 ± 0.29 mg/dL
same,BUN,[4]; 100 mg/kg/day p.o.,38.0 ± 6.4 mg/dL
same,Creatinine,[4]; 100 mg/kg/day p.o.,0.96 ± 0.05 mg/dL
same,inhibition activity against increase in BUN and creatinine (in words),[5]; 10 mg/kg p.o.,did not exhibit clear inhibition activity
same,BUN,[5]; [8],51.1 ± 16.5 mg/dL
same,Creatinine,[5]; [8],1.15 ± 0.29 mg/dL
same,BUN,[5]; [9],38.0 ± 6.1 mg/dL
same,Creatinine,[5]; [9],0.96 ± 0.05 mg/dL
same,inhibition at 100 mg/kg,[5]; read-out: inhibition activity in BUN,38%
same,inhibition at 100 mg/kg,[5]; read-out: inhibition activity in creatinine,25%
same,Vomiting manifestation ratio (%) 4th day,[6]; [10],29.4%
same,Vomiting manifestation ratio (%) 5th day,[6]; [10],23.5%
same,Vomiting manifestation ratio (%) 6th day,[6]; [10],29.4%
same,Vomiting manifestation ratio (%) 7th day,[6]; [10],52.9%
same,manifestation of vomiting (in words),"[6]; 20 mg/kg orally, compared with the vehicle control group",clearly inhibited
same,survival (in words),"[7]; 100 mg/kg p.o., subsequent 5 days, all vehicle control rats died",all of the five rats of the HX-1920 administered group survived
same,BUN,"[7]; 100 mg/kg/day p.o., 16 h after final administration",78.3 ± 45.7 mg/dL
same,Survival ratio,"[7]; 100 mg/kg/day p.o., survival over the subsequent 5 days",100%
